Laboratory results published in PubChem BioAssay (NCI).
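All cell lines were grown in 96-well plates and treated with compound for 48 hours. GI50 is the concentration that inhibits growth by half. TGI: concentration producing complete growth inhibition.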

Assays:
Assay in all cases: DTP human tumour cell line panel, 48 h
786-0 renal = tested on: 786-0 renal
A498 renal = tested on: A498 renal
A549 NSCLC = tested on: A549 NSCLC
ACHN renal = tested on: ACHN renal
BT-549 breast = tested on: BT-549 breast
CAKI-1 renal = tested on: CAKI-1 renal
CCRF-CEM leukemia = tested on: CCRF-CEM leukemia
COLO 205 colon = tested on: COLO 205 colon
DU-145 prostate = tested on: DU-145 prostate
EKVX NSCLC = tested on: EKVX NSCLC
HCC-2998 colon = tested on: HCC-2998 colon
HCT-116 colon = tested on: HCT-116 colon
HCT-15 colon = tested on: HCT-15 colon
HL-60(TB) leukemia = tested on: HL-60(TB) leukemia
HOP-62 NSCLC = tested on: HOP-62 NSCLC
HOP-92 NSCLC = tested on: HOP-92 NSCLC
HS 578T breast = tested on: HS 578T breast
HT29 colon = tested on: HT29 colon
IGROV1 ovarian = tested on: IGROV1 ovarian
K-562 leukemia = tested on: K-562 leukemia
KM12 colon = tested on: KM12 colon
LOX IMVI melanoma = tested on: LOX IMVI melanoma
M14 melanoma = tested on: M14 melanoma
MALME-3M melanoma = tested on: MALME-3M melanoma
MCF7 breast = tested on: MCF7 breast
MDA-MB-231 breast = tested on: MDA-MB-231 breast
MDA-MB-435 = tested on: MDA-MB-435
MOLT-4 leukemia = tested on: MOLT-4 leukemia
NCI-H226 lung = tested on: NCI-H226 lung
NCI-H460 lung = tested on: NCI-H460 lung
NCI-H522 lung = tested on: NCI-H522 lung
NCI/ADR-RES ovarian = tested on: NCI/ADR-RES ovarian
OVCAR-4 ovarian = tested on: OVCAR-4 ovarian
OVCAR-5 ovarian = tested on: OVCAR-5 ovarian
OVCAR-8 ovarian = tested on: OVCAR-8 ovarian
PC-3 prostate = tested on: PC-3 prostate
RPMI-8226 leukemia = tested on: RPMI-8226 leukemia
RXF 393 renal = tested on: RXF 393 renal
SF-268 CNS = tested on: SF-268 CNS
SF-295 CNS = tested on: SF-295 CNS
SF-539 CNS = tested on: SF-539 CNS
SK-MEL-2 melanoma = tested on: SK-MEL-2 melanoma
SK-MEL-28 melanoma = tested on: SK-MEL-28 melanoma
SK-MEL-5 melanoma = tested on: SK-MEL-5 melanoma
SK-OV-3 ovarian = tested on: SK-OV-3 ovarian
SN12C renal = tested on: SN12C renal
SNB-19 CNS = tested on: SNB-19 CNS
SNB-75 CNS = tested on: SNB-75 CNS
SR leukemia = tested on: SR leukemia
SW-620 colon = tested on: SW-620 colon
T-47D breast = tested on: T-47D breast
TK-10 renal = tested on: TK-10 renal
U251 CNS = tested on: U251 CNS
UACC-257 melanoma = tested on: UACC-257 melanoma
UACC-62 melanoma = tested on: UACC-62 melanoma
UO-31 renal = tested on: UO-31 renal

## CCNC(=O)Oc1ccc(/C(=C(/C)c2ccc(Cl)cc2)c2ccc(OCCN3CCCCCC3)cc2)cc1
786-0 renal
  GI50: 1610 nM
  TGI: 3020 nM
A498 renal
  GI50: 1750 nM
  TGI: 3780 nM
A549 NSCLC
  GI50: 1700 nM
  TGI: 3270 nM
ACHN renal
  GI50: 1750 nM
  TGI: 3200 nM
BT-549 breast
  GI50: 1740 nM
  TGI: 3140 nM
CAKI-1 renal
  GI50: 1640 nM
  TGI: 3090 nM
CCRF-CEM leukemia
  GI50: 1640 nM
  TGI: 9810 nM
COLO 205 colon
  GI50: 1740 nM
  TGI: 3180 nM
DU-145 prostate
  GI50: 2290 nM
  TGI: 5370 nM
EKVX NSCLC
  GI50: 1910 nM
  TGI: 4770 nM
HCC-2998 colon
  GI50: 1720 nM
  TGI: 3160 nM
HCT-116 colon
  GI50: 1620 nM
  TGI: 3000 nM
HCT-15 colon
  GI50: 1500 nM
  TGI: 2910 nM
HL-60(TB) leukemia
  GI50: 1820 nM
  TGI: 4450 nM
HOP-62 NSCLC
  GI50: 1550 nM
  TGI: 3000 nM
HOP-92 NSCLC
  GI50: 1410 nM
  TGI: 2860 nM
HS 578T breast
  GI50: 1950 nM
  TGI: 4260 nM
HT29 colon
  GI50: 1700 nM
  TGI: 3270 nM
IGROV1 ovarian
  GI50: 1800 nM
  TGI: 3410 nM
K-562 leukemia
  GI50: 1390 nM
  TGI: 3950 nM
KM12 colon
  GI50: 2630 nM
  TGI: 6800 nM
LOX IMVI melanoma
  GI50: 1690 nM
  TGI: 3120 nM
M14 melanoma
  GI50: 1700 nM
  TGI: 3130 nM
MALME-3M melanoma
  GI50: 1780 nM
  TGI: 3420 nM
MCF7 breast
  GI50: 404 nM
  TGI: 2320 nM
MDA-MB-231 breast
  GI50: 1840 nM
  TGI: 3480 nM
MDA-MB-435
  GI50: 1770 nM
  TGI: 3240 nM
MOLT-4 leukemia
  GI50: 2100 nM
  TGI: 6060 nM
NCI-H226 lung
  GI50: 2610 nM
  TGI: 8200 nM
NCI-H460 lung
  GI50: 1750 nM
  TGI: 3240 nM
NCI-H522 lung
  GI50: 1780 nM
  TGI: 3460 nM
NCI/ADR-RES ovarian
  GI50: 1840 nM
  TGI: 3750 nM
OVCAR-4 ovarian
  GI50: 1960 nM
  TGI: 4550 nM
OVCAR-5 ovarian
  GI50: 1990 nM
  TGI: 4380 nM
OVCAR-8 ovarian
  GI50: 1780 nM
  TGI: 3400 nM
PC-3 prostate
  GI50: 1780 nM
  TGI: 3530 nM
RPMI-8226 leukemia
  GI50: 1800 nM
  TGI: 3930 nM
RXF 393 renal
  GI50: 1460 nM
  TGI: 2930 nM
SF-268 CNS
  GI50: 2200 nM
  TGI: 5540 nM
SF-295 CNS
  GI50: 1600 nM
  TGI: 2970 nM
SF-539 CNS
  GI50: 1720 nM
  TGI: 3140 nM
SK-MEL-2 melanoma
  GI50: 1770 nM
  TGI: 3330 nM
SK-MEL-28 melanoma
  GI50: 1740 nM
  TGI: 3180 nM
SK-MEL-5 melanoma
  GI50: 1680 nM
  TGI: 3050 nM
SK-OV-3 ovarian
  GI50: 1870 nM
  TGI: 3700 nM
SN12C renal
  GI50: 1670 nM
  TGI: 3180 nM
SNB-19 CNS
  GI50: 2500 nM
  TGI: 6880 nM
SNB-75 CNS
  GI50: 1990 nM
  TGI: 4020 nM
SR leukemia
  GI50: 1350 nM
  TGI: 4910 nM
SW-620 colon
  GI50: 1710 nM
  TGI: 3220 nM
T-47D breast
  GI50: 1390 nM
  TGI: 4190 nM
TK-10 renal
  GI50: 2270 nM
  TGI: 6750 nM
U251 CNS
  GI50: 1490 nM
  TGI: 2860 nM
UACC-257 melanoma
  GI50: 1710 nM
  TGI: 3300 nM
UACC-62 melanoma
  GI50: 1790 nM
  TGI: 3280 nM
UO-31 renal
  GI50: 1440 nM
  TGI: 2790 nM
